Assay results: patent US11524006B2, “Crenolanib for treating TRK kinase associated proliferative disorders” (Arog Pharmaceuticals, Inc., priority 2020, dated 2022)

Legend:
[1] = tested on: TRK fusion positive cancers; settings: cited from earlier work
[2] = biological target: T1, TRKA-G667S (Homo sapiens, UniProt P04629, G667S); assay: Reaction Biology HotSpot Kinase assay, direct enzyme phosphorylation; format: biochemical; settings: xDFG Mutant TRKA-G667S
T1 construct: purchased Reaction Biology (HotSpot Kinase assay panel)
T1 sequence (P04629 33-796 G667S): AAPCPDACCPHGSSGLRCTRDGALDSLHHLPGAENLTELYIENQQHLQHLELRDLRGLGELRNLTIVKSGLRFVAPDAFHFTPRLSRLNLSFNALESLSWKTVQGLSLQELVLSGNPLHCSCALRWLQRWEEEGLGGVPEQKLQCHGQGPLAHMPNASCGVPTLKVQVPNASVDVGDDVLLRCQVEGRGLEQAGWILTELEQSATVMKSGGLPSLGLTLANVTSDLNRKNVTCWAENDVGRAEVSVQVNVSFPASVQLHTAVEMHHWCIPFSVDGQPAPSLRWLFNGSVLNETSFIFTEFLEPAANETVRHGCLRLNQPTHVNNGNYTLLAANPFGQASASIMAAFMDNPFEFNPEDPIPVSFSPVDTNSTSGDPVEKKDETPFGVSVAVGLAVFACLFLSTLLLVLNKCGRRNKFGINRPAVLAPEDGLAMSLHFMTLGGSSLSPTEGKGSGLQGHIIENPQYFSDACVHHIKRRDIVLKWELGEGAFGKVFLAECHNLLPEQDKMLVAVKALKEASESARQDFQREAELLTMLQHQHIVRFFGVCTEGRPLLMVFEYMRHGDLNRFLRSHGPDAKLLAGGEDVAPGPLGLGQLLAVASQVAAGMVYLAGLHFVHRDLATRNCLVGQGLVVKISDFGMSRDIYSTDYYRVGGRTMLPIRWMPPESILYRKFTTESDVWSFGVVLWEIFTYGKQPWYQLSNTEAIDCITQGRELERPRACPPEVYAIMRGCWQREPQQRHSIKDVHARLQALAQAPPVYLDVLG
Procedure: (§1) Direct enzyme phosphorylation assay. The Reaction Biology HotSpot Kinase assay was used to screen the present invention against a panel of normal TRKA, TRKB, and TRKC and mutated TRK kinases. For assays of all kinases, the TRK enzyme was prepared in base reaction buffer (20 mM Hepes (pH 7.5), 10 mM MgCl2, 1 mM EGTA, 0.02% Brij35, 0.02 mg/ml BSA, 0.1 mM Na3VO4, 2 mM DTT, 1% DMSO). The reaction was initiated by the addition of 33P-ATP (10 μCi/μL) into the mixture. The reaction mixture was incubated for 120 minutes at room temperature. Radioactivity was detected by filter-binding method, and kinase activity expressed as the percent remaining kinase activity in test samples compared to vehicle reactions. IC50 values and curve fitting were obtained using Prism (GraphPad Software).
(§2) The activity of the besylate salt of the present invention was determined using a direct enzymatic Reaction Biology HotSpot Kinase assay. All IC50 values are presented in nanomolar concentration. In the direct enzymatic measurement assay, the IC50 of the besylate salt of the current invention against the various TRK kinases is shown in Table 1.

[3] = biological target: T2, TRKA-TFG (Homo sapiens, UniProt P04629); assay: as above; format: biochemical; settings: Fusion TRKA-TFG
T2 construct: partner gene encoding one or more dimerization domains with the tyrosine kinase domains of one of the TRK genes; TFG (fusion partner); purchased Reaction Biology (HotSpot Kinase assay panel); the other entry of the earlier key: TFG (Q92734, Protein TFG)
T2 sequence (P04629 with tags, fused parts or gaps): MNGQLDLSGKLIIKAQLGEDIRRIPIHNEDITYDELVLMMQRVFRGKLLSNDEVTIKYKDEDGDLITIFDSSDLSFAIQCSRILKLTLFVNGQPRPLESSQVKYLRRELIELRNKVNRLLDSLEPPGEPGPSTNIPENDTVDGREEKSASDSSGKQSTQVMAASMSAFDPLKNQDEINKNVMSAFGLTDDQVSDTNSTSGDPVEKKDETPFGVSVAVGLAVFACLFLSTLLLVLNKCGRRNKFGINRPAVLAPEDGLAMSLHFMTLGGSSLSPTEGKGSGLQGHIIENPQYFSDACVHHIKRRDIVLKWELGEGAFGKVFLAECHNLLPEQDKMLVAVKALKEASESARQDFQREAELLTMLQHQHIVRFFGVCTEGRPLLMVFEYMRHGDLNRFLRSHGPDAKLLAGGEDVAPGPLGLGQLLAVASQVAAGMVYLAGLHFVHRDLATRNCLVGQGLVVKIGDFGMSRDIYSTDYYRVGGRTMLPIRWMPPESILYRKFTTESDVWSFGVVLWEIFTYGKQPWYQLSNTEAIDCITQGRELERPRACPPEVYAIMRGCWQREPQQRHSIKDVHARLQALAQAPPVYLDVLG
Procedure: as §1, §2

[4] = biological target: T3, TRKC-L686M (Homo sapiens, UniProt Q16288, L686M); assay: as above; format: biochemical; settings: Other Mutant TRKC-L686M
T3 construct: purchased Reaction Biology (HotSpot Kinase assay panel)
T3 sequence (Q16288 32-839 L686M): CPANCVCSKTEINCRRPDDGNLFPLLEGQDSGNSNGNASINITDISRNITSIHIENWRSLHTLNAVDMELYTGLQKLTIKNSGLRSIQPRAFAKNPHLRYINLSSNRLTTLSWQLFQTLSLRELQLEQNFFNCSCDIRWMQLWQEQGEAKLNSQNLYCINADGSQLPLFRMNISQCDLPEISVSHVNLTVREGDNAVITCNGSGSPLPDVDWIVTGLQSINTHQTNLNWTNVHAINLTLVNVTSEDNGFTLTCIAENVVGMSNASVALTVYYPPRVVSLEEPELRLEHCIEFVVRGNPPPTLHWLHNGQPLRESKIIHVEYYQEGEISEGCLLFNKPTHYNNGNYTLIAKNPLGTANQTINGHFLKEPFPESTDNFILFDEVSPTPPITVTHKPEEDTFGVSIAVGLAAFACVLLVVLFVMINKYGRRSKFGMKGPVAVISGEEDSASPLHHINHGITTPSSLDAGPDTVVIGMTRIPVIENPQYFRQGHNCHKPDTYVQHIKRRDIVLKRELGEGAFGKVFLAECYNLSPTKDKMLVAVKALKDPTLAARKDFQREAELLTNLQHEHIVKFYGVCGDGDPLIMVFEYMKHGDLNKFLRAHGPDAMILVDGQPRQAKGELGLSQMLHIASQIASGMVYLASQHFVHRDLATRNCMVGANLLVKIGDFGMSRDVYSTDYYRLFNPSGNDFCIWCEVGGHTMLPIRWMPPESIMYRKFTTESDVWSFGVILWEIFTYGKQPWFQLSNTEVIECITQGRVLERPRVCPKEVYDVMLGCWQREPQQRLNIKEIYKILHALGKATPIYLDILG
Procedure: as §1, §2

[5] = biological target: T4, TRKA-G667C (Homo sapiens, UniProt P04629, G667C); assay: as above; format: biochemical; settings: xDFG Mutant TRKA-G667C
T4 construct: purchased Reaction Biology (HotSpot Kinase assay panel)
T4 sequence (P04629 33-796 G667C): as the sequence (P04629 33-796 G667S) above, with S635C counted along it
Procedure: as §1, §2

[6] = biological target: T5, TRKA-TPR (Homo sapiens, UniProt P04629); assay: as above; format: biochemical; settings: Fusion TRKA-TPR
T5 construct: fused on or other part: N-terminal coiled-coil part of TPR (translocated promoter region protein); P12270 (Nucleoprotein TPR)
T5 sequence (P04629 510-796 limits assumed): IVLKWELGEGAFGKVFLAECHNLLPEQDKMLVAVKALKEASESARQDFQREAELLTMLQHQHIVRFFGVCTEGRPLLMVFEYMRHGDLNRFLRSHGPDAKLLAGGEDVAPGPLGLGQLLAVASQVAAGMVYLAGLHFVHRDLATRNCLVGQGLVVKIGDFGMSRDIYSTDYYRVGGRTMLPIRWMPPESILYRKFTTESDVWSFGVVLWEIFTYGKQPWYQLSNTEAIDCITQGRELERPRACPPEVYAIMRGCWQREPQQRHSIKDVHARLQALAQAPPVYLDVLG
Procedure: as §1, §2

[7] = biological target: T6, TRKA-A608D (Homo sapiens, UniProt P04629, A608D); assay: as above; format: biochemical; settings: Other Mutant TRKA-A608D
T6 construct: purchased Reaction Biology (HotSpot Kinase assay panel)
T6 sequence (P04629 33-796 A608D): as the sequence (P04629 33-796 G667S) above, with A576D, S635G counted along it
Procedure: as §1, §2

[8] = biological target: T7, TRKA-L657M (Homo sapiens, UniProt P04629, L657M); assay: as above; format: biochemical; settings: Other Mutant TRKA-L657M
T7 construct: purchased Reaction Biology (HotSpot Kinase assay panel)
T7 sequence (P04629 33-796 L657M): as the sequence (P04629 33-796 G667S) above, with L625M, S635G counted along it
Procedure: as §1, §2

[9] = biological target: T8, TRKC-G696A (Homo sapiens, UniProt Q16288, G696A); assay: as above; format: biochemical; settings: xDFG Mutant TRKC-G696A
T8 construct: purchased Reaction Biology (HotSpot Kinase assay panel)
T8 sequence (Q16288 32-839 G696A): as the sequence (Q16288 32-839 L686M) above, with M655L, G665A counted along it
Procedure: as §1, §2

[10] = biological target: T9, TRKA-TPM3 (Homo sapiens, UniProt P04629); assay: as above; format: biochemical; settings: Fusion TRKA-TPM3
T9 construct: fused on or other part: N-terminal part of tropomyosin 3 (coiled-coil dimerisation part); P06753 (Tropomyosin alpha-3 chain)
T9 sequence (P04629 510-796 limits assumed): as the sequence (P04629 510-796 limits assumed) above
Procedure: as §1, §2

Row | IC50 [2] | IC50 [3] | IC50 [4] | IC50 [5] | IC50 [6] | IC50 [7] | IC50 [8] | IC50 [9] | IC50 [10] | Structure (SMILES) | clinical response in assessed patients ([1]; assessed patients) | patients progressed within 1 year ([1]; within 1 year)
1 | – | – | – | – | – | – | – | – | – | O=C(Nc1cnn2ccc(N3CCC[C@@H]3c3cc(F)ccc3F)nc12)N1CC[C@H](O)C1 [Larotrectinib] | 75% | 45%
2 | 4.52 nM | 3.95 nM | 184 nM | 5 nM | 3.98 nM | 38.7 nM | 79.7 nM | 5.69 nM | 4.34 nM | CC1(COc2ccc3c(c2)ncn3-c2ccc3cccc(N4CCC(N)CC4)c3n2)COC1 [crenolanib besylate, Crenolanib Besylate] | – | –
